Measurements: ChEMBL document CHEMBL5579813, “2-(3-Indolyl)acetamides and their oxazoline analogues: Anticancer SAR study” (Bioorg Med Chem Lett, 2024)

What was measured:
[1] = test system: BE(2)-C; assay: Antiproliferative activity against human BE2C cells assessed as residual cell viability at 25 uM incubated for 96 hrs by MTT assay relative to control; assay type: functional
[2] = test system: BE(2)-C; assay: Antiproliferative activity against human BE2C cells assessed as reduction in cell growth incubated for 96 hrs by MTT assay; assay type: functional, cell-based
[3] = test system: SW-620; assay: Antiproliferative activity against human SW620 cells assessed as reduction in cell growth incubated for 96 hrs by MTT assay; assay type: functional, cell-based; conditions: SW-620, 96 h
[4] = Antiproliferative activity against human Kelly cells assessed as reduction in cell growth incubated for 96 hrs by MTT assay; assay type: functional, cell-based
[5] = Antiproliferative activity against human fibroblasts assessed as reduction in cell growth incubated for 96 hrs by MTT assay; assay type: toxicity, cell-based, Fibroblast

Question: For NC(=O)C(c1ccccc1)c1c(-c2ccc3ccccc3c2)[nH]c2ccccc12 (stereo not drawn), which Residual cell viability [1] is on record?
Answer: The Residual cell viability was 19.2%.

Question: And the IC50 [2]?
Answer: The IC50 was 8.46 µM.

Question: For NC(=O)C(c1ccccc1)c1c(-c2ccc3ccccc3c2)[nH]c2ccc(Cl)cc12 (stereo not drawn), which Residual cell viability [1] is on record?
Answer: Its Residual cell viability is 144%.

Question: For COc1ccc(C(C(N)=O)c2c(-c3ccccc3)[nH]c3ccccc23)cc1 (stereo not drawn), which Residual cell viability [1] is on record?
Answer: The Residual cell viability was 129%.

Question: Which Residual cell viability [1] does the source give for COc1ccc(C(C(N)=O)c2c(-c3ccccc3)[nH]c3ccccc23)cc1OC (stereo not drawn) here?
Answer: Its Residual cell viability is 16.1%.

Question: Which Residual cell viability [1] does the source give for NC(=O)C(c1ccccc1)c1c(-c2ccccc2)[nH]c2ccccc12 (stereo not drawn) here?
Answer: The Residual cell viability was 185%.

Question: For CC1(C)COC(C(c2ccccc2)c2c(-c3ccccc3)[nH]c3ccccc23)=N1 (stereo not drawn), which Residual cell viability [1] is on record?
Answer: Its Residual cell viability is 13.3%.

Question: Which Residual cell viability [1] does the source give for COc1ccc(-c2[nH]c3ccccc3c2C(C(N)=O)c2ccccc2)cc1 (stereo not drawn) here?
Answer: The Residual cell viability was 100%.

Question: For CCc1ccc(C(C2=NC(C)(C)CO2)c2c(-c3ccc(C)c(C)c3)[nH]c3ccccc23)cc1 (stereo not drawn), which Residual cell viability [1] is on record?
Answer: The Residual cell viability was 16.5%.

Question: What does the source list for COc1ccc(C(C(N)=O)c2c(-c3ccc4ccccc4c3)[nH]c3ccccc23)cc1 (stereo not drawn)?
Answer: Residual cell viability [1]: 13.7%; IC50 [2]: 0.47 µM

Question: With COc1ccc(C(C2=NC(C)(C)CO2)c2c(-c3ccc(C)cc3)[nH]c3ccccc23)cc1 (stereo not drawn) as the compound, how does the Residual cell viability [1] read?
Answer: The Residual cell viability was 17.2%.

Question: And the IC50 [2]?
Answer: Its IC50 is 9.4 µM.

Question: With COc1ccc(-c2[nH]c3ccccc3c2C(C(N)=O)c2ccc(C)cc2)cc1 (stereo not drawn) as the compound, how does the Residual cell viability [1] read?
Answer: Its Residual cell viability is 87%.

Question: And the IC50 [2]?
Answer: The IC50 was 4.65 µM.

Question: For CC(C)c1ccc(C(C(N)=O)c2c(-c3ccccc3)[nH]c3ccccc23)cc1 (stereo not drawn), which Residual cell viability [1] is on record?
Answer: Its Residual cell viability is 88%.

Question: And the IC50 [2]?
Answer: Its IC50 is 24 µM.

Question: With CC1(C)COC(C(c2ccccc2F)c2c(-c3ccc4c(c3)CCCC4)[nH]c3ccccc23)=N1 (stereo not drawn) as the compound, how does the Residual cell viability [1] read?
Answer: Its Residual cell viability is 25.6%.

Question: And the IC50 [2]?
Answer: The IC50 was 88 µM.

Question: With CCc1ccc(C(C2=NC(C)(C)CO2)c2c(-c3ccc4c(c3)CCCC4)[nH]c3ccccc23)cc1 (stereo not drawn) as the compound, how does the Residual cell viability [1] read?
Answer: The Residual cell viability was 33.3%.

Question: Which Residual cell viability [1] does the source give for NC(=O)C(c1ccc(Cl)cc1)c1c(-c2ccc3ccccc3c2)[nH]c2ccccc12 (stereo not drawn) here?
Answer: Its Residual cell viability is 13.9%.

Question: What about the IC50 [2] of the same compound?
Answer: The IC50 was 0.79 µM.

Question: For COc1ccccc1C(C1=NC(C)(C)CO1)c1c(-c2ccc3c(c2)CCCC3)[nH]c2ccccc12 (stereo not drawn), which Residual cell viability [1] is on record?
Answer: The Residual cell viability was 42%.

Question: And the IC50 [2]?
Answer: Its IC50 is 20 µM.

Question: With NC(=O)C(c1ccccc1Cl)c1c(-c2ccc3ccccc3c2)[nH]c2ccccc12 (stereo not drawn) as the compound, how does the Residual cell viability [1] read?
Answer: The Residual cell viability was 132%.

Question: And the IC50 [2]?
Answer: Its IC50 is 0.96 µM.

Question: Which Residual cell viability [1] does the source give for CCc1ccc(C(C2=NC(C)(C)CO2)c2c(-c3ccc(C)cc3)[nH]c3ccccc23)cc1 (stereo not drawn) here?
Answer: The Residual cell viability was 189%.

Question: For NC(=O)C(c1cccc(Cl)c1)c1c(-c2ccc3ccccc3c2)[nH]c2ccccc12 (stereo not drawn), which Residual cell viability [1] is on record?
Answer: The Residual cell viability was 142%.

Question: With COc1ccc(C(C2=NC(C)(C)CO2)c2c(-c3ccc(C)c(C)c3)[nH]c3ccccc23)cc1 (stereo not drawn) as the compound, how does the Residual cell viability [1] read?
Answer: Its Residual cell viability is 135%.

Question: With Cc1ccc(C(C(N)=O)c2c(-c3ccc4ccccc4c3)[nH]c3ccccc23)cc1 (stereo not drawn) as the compound, how does the Residual cell viability [1] read?
Answer: The Residual cell viability was 14.5%.

Question: And the IC50 [2]?
Answer: Its IC50 is 0.29 µM.

Question: And the IC50 [3]?
Answer: The IC50 was 0.37 µM.

Question: And the IC50 [4]?
Answer: The IC50 was 0.93 µM.

Question: What about the IC50 at 96 h [5] of the same compound?
Answer: Its IC50 at 96 h is 75.7 µM.

Question: With CC1(C)COC(C(c2ccccc2)c2c(-c3ccc4ccccc4c3)[nH]c3ccccc23)=N1 (stereo not drawn) as the compound, how does the Residual cell viability [1] read?
Answer: Its Residual cell viability is 128%.

Question: Which results are given for NC(=O)C(c1ccc(Cl)cc1)c1c(-c2ccccc2)[nH]c2ccccc12 (stereo not drawn)?
Answer: Residual cell viability [1]: 14.1%; IC50 [2]: 0.99 µM

Question: For Cc1ccc(-c2[nH]c3ccccc3c2C(C2=NC(C)(C)CO2)c2ccccc2)cc1 (stereo not drawn), which Residual cell viability [1] is on record?
Answer: Its Residual cell viability is 134%.

Question: With COc1ccc(-c2[nH]c3ccccc3c2C(C(N)=O)c2ccccc2OC)cc1 (stereo not drawn) as the compound, how does the Residual cell viability [1] read?
Answer: The Residual cell viability was 178%.

Question: What about the IC50 [2] of the same compound?
Answer: The IC50 was 7.34 µM.

Question: For NC(=O)C(c1ccccc1)c1c(-c2ccccc2)[nH]c2ccc(Cl)cc12 (stereo not drawn), which Residual cell viability [1] is on record?
Answer: The Residual cell viability was 136%.

Question: What about the IC50 [2] of the same compound?
Answer: The IC50 was 14 µM.

Question: For CC1(C)COC(C(c2ccccc2Cl)c2c(-c3ccc4c(c3)CCCC4)[nH]c3ccccc23)=N1 (stereo not drawn), which Residual cell viability [1] is on record?
Answer: Its Residual cell viability is 34.3%.

Question: What about the IC50 [2] of the same compound?
Answer: The IC50 was 6.1 µM.

Question: Which Residual cell viability [1] does the source give for COc1ccc(-c2[nH]c3ccccc3c2C(C(N)=O)c2ccccc2OC)cc1OC (stereo not drawn) here?
Answer: Its Residual cell viability is 169%.

Question: With COc1ccc(C(C(N)=O)c2c(-c3ccc4ccccc4c3)[nH]c3ccccc23)cc1OC (stereo not drawn) as the compound, how does the Residual cell viability [1] read?
Answer: The Residual cell viability was 49.2%.

Question: And the IC50 [2]?
Answer: The IC50 was 0.25 µM.

Question: What about the IC50 [3] of the same compound?
Answer: The IC50 was 1.71 µM.

Question: What about the IC50 [4] of the same compound?
Answer: Its IC50 is 0.23 µM.

Question: And the IC50 at 96 h [5]?
Answer: The IC50 at 96 h was 192 µM.

Question: Which Residual cell viability [1] does the source give for NC(=O)C(c1ccccc1Cl)c1c(-c2ccccc2)[nH]c2ccccc12 (stereo not drawn) here?
Answer: The Residual cell viability was 13.9%.

Question: For Cc1ccc(-c2[nH]c3ccccc3c2C(C(N)=O)c2ccccc2)cc1 (stereo not drawn), which Residual cell viability [1] is on record?
Answer: Its Residual cell viability is 159%.

Question: For Cc1ccc(C(C(N)=O)c2c(-c3ccccc3)[nH]c3ccccc23)cc1 (stereo not drawn), which Residual cell viability [1] is on record?
Answer: The Residual cell viability was 151%.

Question: With NC(=O)C(c1cccc(Cl)c1)c1c(-c2ccccc2)[nH]c2ccccc12 (stereo not drawn) as the compound, how does the Residual cell viability [1] read?
Answer: The Residual cell viability was 14.1%.

Question: With COc1ccccc1C(C(N)=O)c1c(-c2ccccc2)[nH]c2ccccc12 (stereo not drawn) as the compound, how does the Residual cell viability [1] read?
Answer: Its Residual cell viability is 147%.

Question: What does the source list for CC1(C)COC(C(c2ccc(Cl)cc2)c2c(-c3ccc4c(c3)CCCC4)[nH]c3ccccc23)=N1 (stereo not drawn)?
Answer: Residual cell viability [1]: 145%; IC50 [2]: 18.8 µM

Question: Which results are given for COc1ccccc1C(C(N)=O)c1c(-c2ccc3ccccc3c2)[nH]c2ccccc12 (stereo not drawn)?
Answer: Residual cell viability [1]: 42.4%; IC50 [2]: 0.28 µM; IC50 [3]: 1.41 µM; IC50 [4]: 1.33 µM; IC50 at 96 h [5]: 155 µM

Question: For CC1=C(/C=C/C(C)=C/C=C/C(C)=C/C(=O)O)C(C)(C)CCC1 [TRETINOIN], which IC50 [2] is on record?
Answer: Its IC50 is 6.7 µM.
